{
  "source": "patent US20210161868A1",
  "about": "“ANTI-INFLAMMATORY THERAPY IN ARRHYTHMOGENIC CARDIOMYOPATHY (ACM)” (Beth Israel Deaconess Medical Center, Inc., priority 2018, published 2021)",
  "system": "Dsg2^mut/mut mice",
  "assay": "Morphometry, echocardiography and electrocardiography in Dsg2^mut/mut mice",
  "type": "in vivo",
  "from_the_text": "All animal studies were in full compliance with policies of Beth Israel Deaconess Medical Center, Johns Hopkins School of Medicine and St. George's University of London. They also conformed to the Guide for the Care and Use of Laboratory Animals from the National Institutes of Health (NIH publication no. 85-23, revised 1996). In vitro studies involved transfection of cultured neonatal rat ventricular myocytes with a mutant allele of the desmosomal protein plakoglobin (2157de12) as previously described.^15 In vivo studies were performed in mice with homozygous knock-in of a mutant form of Dsg2, the gene encoding the desmosomal cadherin desmoglein-2 (Dsg2^mut/mut mice) as previously described.^6 This mutation entails loss of exons 4 and 5 which causes a frameshift and premature termination of translation.\nThree cohorts of mice at 8 weeks of age were anesthetized and implanted with subcutaneous osmotic mini-pumps (Alzet, Model 1004). These included: 1) Dsg2^mut/mut mice with pumps containing 50 μg/μL Bay11-7082 in a vehicle of 65% DMSO, 15% ethanol, and 20% saline; 2) Dsg2^mut/mut mice with pumps containing an equivalent volume of vehicle; and 3) wildtype mice with pumps containing vehicle. Mice in cohort 1 received 5 mg/kg/day of Bay11-7082 by continuous infusion; those in cohorts 2 and 3 received an equivalent volume of vehicle each day for 4 weeks. At 12 weeks of age, mice were re-anesthetized and new Alzet pumps were implanted for an additional 4 weeks of treatment.\nAt the end of the 8 week drug treatment protocol, cardiac function was assessed in all mice by transthoracic echocardiography and electrocardiography (ECG) as previously described. Echocardio-graphic measurements were made according to American Society of Echocardiography guidelines^48 in non-sedated mice using a Vevo 2100 Visualsonic imaging system. Parasternal long-axis views of the left ventricle (LV), at the level of the papillary muscles, were acquired at a sweep speed of 200 mm/second. Three to five measurements were acquired from each mouse and averaged to assess LV function as previously described. ECG measurements made in anesthetized mice in which wire electrodes had been sutured in place in the right and left arms to obtain standard lead I ECG recordings. Recordings were captured via PowerLab and analyzed via the LabChart Pro ECG Analysis Add-on Software (LabChart Pro 8, MLS360/8, AD Intruments). ECGs were recorded for 15 minutes and all ECG wave and amplitude parameters were analyzed as signal averaged ECGs (SAECGs). Following completion of functional studies, mice were euthanized and hearts were excised and processed for additional studies either by freezing fresh tissue (−80C) or fixing tissue in 10% buffered formalin and embedding in paraffin.",
  "key": {"[1]": {"settings": "Dsg2^mut/mut + Bay11-7082, n=17, mean±SEM, 8 week treatment"}, "[2]": {"settings": "Dsg2^mut/mut mice, continuous infusion over 8 weeks"}},
  "data": [
    {"molecule": "Cc1ccc(S(=O)(=O)/C=C/C#N)cc1", "note": "[Bay 11-7082]", "values": [
      {"measurement": "FS, fractional shortening", "setting": "[1]", "value": "49.5 ± 1.9", "unit": "%"},
      {"measurement": "HW/BW, heart weight/body weight", "setting": "[1]", "value": "4.7 ± 0.1", "unit": "mg/g"},
      {"measurement": "IVSd, interventricular septum thickness at end-diastole", "setting": "[1]", "value": "0.95 ± 0.02", "unit": "mm"},
      {"measurement": "LVIDd, left ventricular internal diameter at end-diastole", "setting": "[1]", "value": "2.96 ± 0.06", "unit": "mm"},
      {"measurement": "LVIDs, left ventricular internal diameter at end-systole", "setting": "[1]", "value": "1.50 ± 0.08", "unit": "mm"},
      {"measurement": "LVM, left ventricular mass", "setting": "[1]", "value": "92.9 ± 3.08", "unit": "mg"},
      {"measurement": "P-Amp, P-wave amplitude", "setting": "[1]", "value": "0.06 ± 0.003", "unit": "mV"},
      {"measurement": "PR-I, P-R interval", "setting": "[1]", "value": "39.0 ± 0.9", "unit": "ms"},
      {"measurement": "Pd, P-wave duration", "setting": "[1]", "value": "10.1 ± 0.5", "unit": "ms"},
      {"measurement": "Q-Amp, Q-wave amplitude", "setting": "[1]", "value": "−0.06 ± 0.01", "unit": "mV"},
      {"measurement": "QRSd, QRS wave duration", "setting": "[1]", "value": "11.4 ± 0.4", "unit": "ms"},
      {"measurement": "R-Amp, R-wave amplitude", "setting": "[1]", "value": "0.66 ± 0.04", "unit": "mV"},
      {"measurement": "RR-I, R-R interval", "setting": "[1]", "value": "118 ± 2.5", "unit": "ms"},
      {"measurement": "S-Amp, S-wave amplitude", "setting": "[1]", "value": "−0.09 ± 0.04", "unit": "mV"},
      {"measurement": "abnormalities in the signal averaged ECG", "setting": "[2]", "value": "corrected"},
      {"measurement": "contractile function", "setting": "[2]", "value": "normalized"},
      {"measurement": "treated ACM mice that failed to respond to NFκB inhibition", "setting": "related to technical failure of drug delivery by Alzet minipumps", "value": "3 of 17"}
    ]}
  ]
}
